The values that follow come from patent US20190374650A1, “COMPOSITIONS AND METHODS FOR DELIVERY OF POLYMER/BIOMACROMOLECULE CONJUGATES” (THE REGENTS OF THE UNIVERSITY OF MICHIGAN, priority 2017, published 2019).

In data set [1] the test system is neo-antigen-specific CD8+ T cells. The data set is described as follows: Intratumoral injection into established MC38 tumors: tetramer staining of PBMCs. Format: in vivo, C57BL/6 mice. To be noted: MC38 tumor-bearing mice, day 7 after first injection. As to the method: (§1) C57BL/6 mice were subcutaneously injected with 5×10^5 MC38 colon carcinoma cells (a gift from W. Zou, University of Michigan) into the right flank and randomly sorted for treatment after 9 days when the tumor volumes reached approximately 50-70 mm^3. Fifty μl PBS solution of ASMTNMELM, CpG, ASMTNMELM+CpG, PEI-SS-CSSASMTNMELM+CpG (10 μg ASMTNMELM and 15 μg CpG), or blank PBS (50 μl) were directly injected into tumor every week for total three times. PBMCs were collected on day 7 after the first sample injection and tetramer staining was performed for flow cytometric analysis of neo-antigen-specific CD8+ T cells. The sizes of the tumors were measured every three days using a digital caliper, and the tumor volume was estimated by ellipsoidal calculation as V=(width)^2×length×π/6. The mice were euthanized when the tumors reached the maximum permitted size (1.5 cm in any dimension) or ulcerations occurred.

A further data set relates to MC38 tumors. As to the kind of experiment: In vivo cancer immunotherapy against established MC38 tumors: tumor volume and survival. On the set-up: species or system C57BL/6 mice. To be noted: three weekly intratumoral injections. How it is done:
as §1

The subject of data set [2] is BMDCs. The data set is described as follows: BMDC cytotoxicity (CCK-8 viability). Format: cell-based. To be noted: 24 h incubation, concentration as high as 100 μg/ml. As to the method:
(§2) BMDCs were plated at a density of 1×10^5 cells/well in 96 well plates in RPMI 1640 supplemented with 10% FBS and 1% PS, and incubated overnight at 37° C. under 5% CO2. For cytotoxicity assessment, cells were incubated with either free form (CSSASMNTMELM) or PEI conjugate (PEI-SS-CSSASMTNMELM) of the neo-antigen peptide for 24 h at concentrations of 1, 5, 10, 20, 50, 100 μg/ml. The viability was measured by adding CCK-8 to each well of the plate according to manufacturer's instruction followed by absorbance measurement at 450 nm using a microplate reader after 2 h incubation. Relative viability was calculated as to the ratio of the absorbance to the non-sample treated cells (0 μg/ml). To investigate BMDC activation, cells were treated with PBS or PEI-SS-CSSASMTNMELM, PBS+CpG, PEI-SS-CSSASMTNMELM+CpG (2 μg/ml PEI-SS-CSSASMTNMELM and 1 μg/ml CpG) for 2 h. The fresh cell culture media were placed after sample washing and collected for cytokine analysis after further 24 h incubation. The concentration of IL-12p70 in the media was measured using ELISA kit by following the manufacturer's instruction.

The subject of data set [3] is BMDCs. As to the kind of experiment: BMDC activation: IL-12p70 secretion (ELISA). The class given is cell-based. To be noted: alone, w/o CpG; 2 μg/ml, 2 h. How it is done: as §2
On the technique in general: An ELISA detects its analyte on a solid surface through an enzyme-linked reagent.

Data set [4] concerns BMDCs. As to the kind of experiment: BMDC activation: expression of co-stimulatory markers CD86 and CD40 by flow cytometry. Format: cell-based, C57BL/6 mice. To be noted: conjugate alone, w/o CpG; 1% modification, 2 nmol SIINFEKL/ml, 24 h. As to the method: (§3) Femur and tibia were harvested from C57BL/6 mice. Cells were collected by flushing bone marrow with a syringe, passing the cell suspension through a cell strainer (mesh size=40 μm), followed by centrifugation (200×g, 5 min). Cells were then seeded into non-tissue culture treated petri-dishes at a density of 2×10^6 cells/ml in DC culture media (RPMI 1640 supplemented with 10% FBS, 1% penicillin-streptomycin, 50 μM β-mercaptoethanol, and 20 ng/ml GM-CSF), cultured at 37° C. with 5% CO2. Culture media were refreshed on days 3, 6, and 8, and BMDCs were used on days 8-12.
(§4) BMDCs were seeded at a density of 8×10^5 cells/ml into 12-well plates. Cells were incubated with PGA120k-MAL-CSSSIINFEKL or PGA120k-SS-CSSSIINFEKL (1% modification of carboxyl groups, 2 nmol SIINFEKL/ml) w/or w/o 0.5 μg/ml CpG in 1 ml BMDC culture media for 24 h. Cells were harvested, blocked with anti-CD16/32 at room temperature for 10 min, and then stained with anti-CD11c-PECy7, anti-CD40-APC, anti-CD86-PE, or anti-SIINFEKL-H-2K^b-PE at room temperature for 30 min. Finally, cells were washed and resuspended in 2 μg/ml DAPI solution and analyzed by a flow cytometer (Cyan 5, Beckman Coulter).
(Flow cytometry measures light scatter and fluorescence of single cells or particles in a stream.)

The test system of data set [5] is BMDCs. The data set is described as follows: Antigen cross-presentation: presentation of SIINFEKL on DCs by flow cytometry. Format: cell-based, C57BL/6 mice. To be noted: 2 nmol SIINFEKL/ml, 24 h. As to the method:
as §3, §4

In another data set the test system is OT-I T cells. As to the kind of experiment: Proliferation of antigen-specific CD8+ T cells in vitro (CFSE dilution). The class given is cell-based, OT-I mice. To be noted: BMDCs pre-activated 24 h, 0.5 nmol SIINFEKL/ml, in the presence of 0.5 μg/ml CpG; co-culture 3 days. As to the method:
SIINFEKL-specific CD8^+ T cells were isolated from OT-I mice using an EasySep™ Mouse CD8^+ T Cell Isolation Kit (STEMCELL Technologies, Cambridge, Mass.), and stained by CFSE. 5×10^4 BMDCs were seeded into 96-well plates, and incubated with PGA120k conjugates (1% modification of carboxyl groups, 0.5 nmol SIINFEKL/ml) w/or w/o 0.5 μg/ml CpG for 24 h. BMDCs were then washed by PBS, followed by co-culture with 5×10^4 CFSE-labeled OT-I T cells for 3 days. Cells were then harvested, blocked with anti-CD16/32, and stained with anti-CD8-APC on ice for 30 min. Cells were washed and resuspended in 2 μg/ml DAPI solution and analyzed for fluorescence dilutions of CFSE by flow cytometry.

Where no end group is shown, it is not given here.

As for 5′-tccatgacgttcctgacgtt-3′ [CpG], the “neo-antigen-specific CD8+ T cell response” value in data set [1] was “failed to elicit”. Besides, in the data set on MC38 tumors, the survival rates is reported as roughly 20% and the tumor progression entry was “slowed tumor progression”.

Turning to ASMTNMELM [neo-antigen], in data set [1], the “neo-antigen-specific CD8+ T cell response” value is “failed to elicit”. Also, in the data set with MC38 tumors, the “time by which all animals succumbed to tumors” value is recorded as no more than 50 days.

Turning to “CSSASMTNMELM [free peptide, CSSASMTNMELM]”, the BMDC viability result in the data set with BMDCs [2] is “maintained their viability”.

With “PEI-SS-CSSASMTNMELM: PEI (MW 25,000), PEGylated, disulfide-linked via SPDP to neo-antigen peptide CSSASMTNMELM (PEGylated PEI disulfide-linked via SPDP)”, in the data set with BMDCs [2], the BMDC viability entry is recorded as “maintained their viability”. Moreover, the “activation of BMDCs (secretion of IL-12p70)” value in the data set on BMDCs [3] was “failed to induce activation of BMDCs”.

On to “PGA-MAL-CSSSIINFEKL: 120 kD poly(L-glutamic acid) linked by non-sensitive maleimide-thiol bond to peptide CSSSIINFEKL, 1% modification of carboxyl groups (not fully specified; poly(L-glutamic acid) 120 kD maleimide-thiol conjugate)”, for which the “activation of DCs (expression of CD86 and CD40)” value in the data set with BMDCs [4] was “failed to activate DCs”.

In the case of “PGA-SS-CSSSIINFEKL: 120 kD poly(L-glutamic acid) linked by reduction-sensitive disulfide bond to peptide CSSSIINFEKL, 1% modification of carboxyl groups (not fully specified; poly(L-glutamic acid) 120 kD disulfide conjugate)”, in the data set with BMDCs [4], the “CD40 expression in DCs” value is reported as “slightly increased CD40 expression”. Besides, the “presentation of SIINFEKL on DCs” value in the data set on BMDCs [5] (w/o CpG, compared with soluble peptide and PGA-MAL-CSSSIINFEKL) was “significantly higher presentation of SIINFEKL on DCs”; in the data set on BMDCs [5] (with 0.5 μg/ml CpG) it was “further increased by CpG”.

As to “SIINFEKL [soluble peptide, model antigen peptide]”, the “proliferation of OT-I T cells” value in the data set on OT-I T cells is greater than 60%.
